Tests used:
[1] = tested on: subjects with type 1 diabetes; assay: 52-week randomized controlled clinical trial, basal insulin + prandial TI Inhalation Powder versus basal insulin + SC insulin aspart; format: in vivo, human; conditions: with basal insulin glargine
From the text: This was a prospective, multi-country, multicenter, open label, randomized, controlled clinical trial comparing glycemic control in subjects with type 1 diabetes receiving basal insulin and prandial insulin-FDKP (TI) Inhalation Powder (TI Inhalation Powder group) with subjects receiving basal insulin and SC rapid-acting insulin aspart (comparator group). This study included a 52-week treatment phase and a 4-week follow- up phase. During the 4-week follow-up phase, pulmonary function and select clinical laboratory assessments were scheduled.
The study began with enrollment at Week−3. Subjects received a complete battery of safety and eligibility assessments, including HbA1c and fasting plasma glucose (FPG).
At Week−1, subjects were randomized to one of the following 2 treatments: Basal insulin+prandial TI Inhalation Powder Basal insulin+prandial SC rapid-acting insulin
At Week-1, subjects again completed the first three components of the Insulin Treatment Questionnaire (ITQ) for the purpose of assessing test-retest reliability only). After completing the questionnaire, subjects randomized to the TI Inhalation Powder group were trained on the MEDTONE® Inhaler using TECHNOSPHERE®/insulin (insulin-FDKP) inhalation powder; subjects in the comparator group were trained in the use of the NOVOLOG® pens; all subjects were trained in administration of LANTUS®. Additionally, all subjects were trained on a blood glucose monitoring (HBGM) meter provided at the beginning of the trial and diary and received diabetes education. Any training was repeated at Week 0, if needed.
At the beginning of the treatment phase, subjects had several titration/dose evaluation visits to adjust insulin therapy. Titration visits occurred once a week for the first 4 weeks. During Weeks 4 through 10, there were three telephone “visits” (at Week 6, Week 8, and Week 10) to titrate dose, if necessary. However, dose titration was allowed throughout the trial.
All subjects completed a 7-point blood glucose profile on any 3 days during the week immediately preceding each visit from Week 0 to Week 52. The 7 time points included samples from before breakfast and 2 hours after breakfast, before the mid-day meal and 2 hours after the mid-day meal, before the evening meal and 2 hours after the evening meal and at bedtime (7 time points a day, over 3 days). These blood glucose (BG) values were recorded in the HBGM diary that was collected at clinic visits. […]
A meal challenge test was performed at Week 4 (during dose titration), Week 26, and Week 52. […] Blood glucose (BG) was also measured using HBGM glucose meters to aid the Investigator in treatment decisions and values were obtained at −30, 0, 60, and 120 minutes during the meal challenge. […]

[2] = manufacturer's prescribing information (Mar. 2007 revision); cited from earlier work
[3] = human, in vivo
Experimental: The insulin-FDKP formulation is administered to the subjects by oral inhalation using a MEDTONE® dry powder inhaler (MannKind Corp.). Following the completion of the meal challenge, the data was analyzed as per the statistical analysis plan. […] The study was amended (A1) and included 12 subjects (10 were reenrolled from the first meal challenge), and only two treatments, which were 10 U lispro and 60 and 90 U TI. The doses were selected based on the relative bioavailability observed following the first meal challenge (OP), where under an assumption of linear kinetics, 10 U lispro and 60 U TI would result in similar exposure. The 90 U dose group was included to assess the effect of the highest dose group of TI studied in Phase 3 trials. Six of the 12 subjects received 60 U TI and the other 6 subjects received 90 U TI. All 12 subjects received 10 U lispro in a crossover fashion. Methods and results below are described in terms of the Original Protocol (OP), which includes the meal challenge in 18 subjects with three treatments (EXUBERA®, lispro and TI) and Amendment 1 (A1), which includes 12 subjects treated with only TI and lispro. […] The subjects were screened and evaluated before, during and after the experiments and their data analyzed as described below. […]

[4] = tested on: subjects with type 2 diabetes; assay: Meal challenge test, Original Protocol (OP): blood glucose, endogenous glucose production, glucose disappearance; format: in vivo, human; conditions: 45 U insulin-FDKP, 12 U sc lispro, 4 mg EXUBERA, FIG. 6
Experimental: The insulin-FDKP formulation is administered to the subjects by oral inhalation using a MEDTONE® dry powder inhaler (MannKind Corp.). Methods and results below are described in terms of the Original Protocol (OP), which includes the meal challenge in 18 subjects with three treatments (EXUBERA®, lispro and TI) and Amendment 1 (A1), which includes 12 subjects treated with only TI and lispro. […] The subjects were screened and evaluated before, during and after the experiments and their data analyzed as described below. Subjects were selected based on several key inclusion criteria, including, male and female, having ≥18 and ≤70 years of age with clinical diagnosis of type 2 diabetes mellitus for 12 months. […] Blood glucose concentrations were measured at regular intervals from arterialized venous blood samples. […] EGP was determined by measurement of 6,6-^2H2 glucose applying the modified calculations for the non-steady state ([…], and D. T. Stein. Calculating glucose fluxes during meal tolerance test: a new computational approach. Am.J.Physiol Endocrinol.Metab 293 (2):[…]-[…], 2007). C-peptide concentrations were measured pre- and post-dose to assess endogenous insulin secretion. In addition, glucagon and free fatty acid concentrations were also determined.

[5] = tested on: subjects with type 2 diabetes; assay: Meal challenge test, Amendment 1 (A1): blood glucose, endogenous glucose production, glucose disappearance; format: in vivo, human; conditions: 60 U and 90 U insulin-FDKP groups, 10 U lispro, FIG. 11
Experimental: Following the completion of the meal challenge, the data was analyzed as per the statistical analysis plan. […] The study was amended (A1) and included 12 subjects (10 were reenrolled from the first meal challenge), and only two treatments, which were 10 U lispro and 60 and 90 U TI. The doses were selected based on the relative bioavailability observed following the first meal challenge (OP), where under an assumption of linear kinetics, 10 U lispro and 60 U TI would result in similar exposure. The 90 U dose group was included to assess the effect of the highest dose group of TI studied in Phase 3 trials. Six of the 12 subjects received 60 U TI and the other 6 subjects received 90 U TI. All 12 subjects received 10 U lispro in a crossover fashion. Methods and results below are described in terms of the Original Protocol (OP), which includes the meal challenge in 18 subjects with three treatments (EXUBERA®, lispro and TI) and Amendment 1 (A1), which includes 12 subjects treated with only TI and lispro. […] The subjects were screened and evaluated before, during and after the experiments and their data analyzed as described below. […] Blood glucose concentrations were measured at regular intervals from arterialized venous blood samples. […]

In the case of insulin aspart, the “mean FPG at the end of the treatment period” value ([1]; 52 weeks) is reported as 161.3 (SD 68.2) mg/dL, the “average body weight gain over the 52-week treatment period” value [1] is reported as 1.4 kg and the “HbA1c at Week 14” value ([1]; baseline 8.41 (SD 0.92) TI arm, 8.48 (SD 0.97) insulin aspart arm) is reported as 8.07 (SD 1.09) %. For the same substance, the “mean decrease in fasting plasma glucose (FPG) over the 52-week treatment period” value ([1]; baseline 187.6 (SD 85.1) TI group, 180.8 (SD 86.9) comparator group) was 23.4 (SD 103.1) mg/dL.

For insulin glargine, the “period of relatively constant glucose lowering activity” value [2] is listed as 24 h.

In the case of insulin lispro, the “median tmax of insulin concentrations” value [3] is reported as 1.25 h, the “time at which glucose disappearance rate peaked after dosing” value [4] is reported as “about 120 minutes” and the “time at which glucose disappearance rate peaked after dosing” value [5] is reported as “about 100 minutes”.

From patent US11931404B2, “Use of ultrarapid acting insulin” (MannKind Corporation, priority 2014, dated 2024)
